Key:
rat BDNF 5′UTR exon 2C = test: Dual luciferase assay, pN1-exon2C-Fluc in SH-SY5Y cells; format: cell-based; conditions: undifferentiated SH-SY5Y; GLU 20 μM, NMDA 30 μM, NE 50 μM
Method: (§3) Plasmids were transfected into SH-SY5Y cells using lipofectamine 2000 (Invitrogen) to obtain a transient transfection. The relative quantity of DNA to lipofectamine has been determined and the optimal ratio was found at 0.2 μg of DNA and 0.5 μl of lipofectamine for each well of a 96 multiwell plate. At the time of transfection SH-SY5Y cells were around 70-75% of confluency. According to the Promega protocol for luciferase activity measurements, each construct-containing Fluc was transfected together with the normalizing Rluc construct with a 10:1 ratio (0.2 μg Fluc containing vector together with 0.02 μg of pN1-Rluc vector). The DNA (0.2 μg) was mixed with 25 μl of native MEM medium and incubated for 5 minutes at room temperature. The two solutions were then mixed and incubated for 20 minutes at room temperature to allow the formation of DNA-containing micelles. Then, 50 μl of such solution were added in each well to cells and incubated for 24 h at 37° C. After 24 h transfection, the medium was removed and replaced with fresh culture medium.
(§4) To determine the effects of receptors activation on translation controlled by the different BDNF 5′UTR sequences, cells were treated for 3 hours with 50 mM KCl to induce generalized cell depolarization.
Luciferase assay was performed according to the manufacturer's instructions (Promega). At the time of luciferase assay, the growth medium was removed from the cultured cells and a sufficient volume of PBS 1× was applied to wash the surface of the culture vessel. […] After lysis, 100 μl of Luciferase Assay Reagent II (LARII) were dispensed in each well and Firefly luciferase activity was measured using the Glo Max Multi luminometer with two injectors (Promega Corporation).
(§5) After quantifying the Firefly luminescence, this reaction was quenched and simultaneously, the Renilla luciferase reaction was initiated by adding 100 μl Stop & Glo Reagent (Promega) to the same well. Then, Renilla luciferase activity was measured using the Glo Max Multi luminometer with two injectors (Promega Corporation). […]

BDNF 3′UTR-short = test: Luciferase assay, pN1-Fluc-3′short in SH-SY5Y cells; format: cell-based, rat; conditions: transfected SHSY-5Y; GLU 20 μM
Method: (§1) Basal and drug-induced translation of a luciferase reporter gene driven by BDNF short and long 3′UTR or coding region (CDS) sequences were measured.
(§2) BDNF ([…]) was specifically employed for the stimulation of the 3′UTR long containing plasmid and NT3 ([…]) for 3′UTR short containing plasmid.

rat BDNF 5′UTR exon 2B = test: Dual luciferase assay, pN1-exon2B-Fluc in SH-SY5Y cells; format: cell-based; conditions: undifferentiated SH-SY5Y, 24 h after transfection; KCL 50 mM, BDNF 50 ng/ml, GLU 20 μM, NE 50 μM
Method: as §3, §4
(§6) Luciferase assay was performed according to the manufacturer's instructions (Promega). At the time of luciferase assay, the growth medium was removed from the cultured cells and a sufficient volume of PBS 1× was applied to wash the surface of the culture vessel. Then, the PBS 1× solution was completely removed and the cells lysis was started by adding 20 μl of PLB (passive lysis buffer) into each well. After adding the PLB solution, the culture plate was placed on an orbital shaker with gentle shaking at room temperature for 15 minutes to cover uniformly the cell monolayer with PLB. After lysis, 100 μl of Luciferase Assay Reagent II (LARII) were dispensed in each well and Firefly luciferase activity was measured using the Glo Max Multi luminometer with two injectors (Promega Corporation).
(§7) After quantifying the Firefly luminescence, this reaction was quenched and simultaneously, the Renilla luciferase reaction was initiated by adding 100 μl Stop & Glo Reagent (Promega) to the same well. Then, Renilla luciferase activity was measured using the Glo Max Multi luminometer with two injectors (Promega Corporation).
(§8) One day prior transfection, undifferentiated neuro-blastoma SH-SY5Y cells were seeded into a 96-well white plate with clear bottom (PBI International) at a confluency of 50-60% and cultured overnight. Plasmids containing the different BDNF 5′UTR exons were then transiently transfected into SH-SY5Y cells using Lipofectamine™ 2000 (Invitrogen) at high cell density (70-75%), according to the manufacturer's protocol. […]

rat BDNF 5′UTR exon 4 = test: Dual luciferase assay, pN1-exon4-Fluc in SH-SY5Y cells; format: cell-based; conditions: undifferentiated SH-SY5Y; KCL 50 mM, BDNF 50 ng/ml, GLU 20 μM, NE 50 μM, 5-HT 50 μM
Method: as §3, §4, §6, §7, §8

rat BDNF 5′UTR exon 8 = test: Dual luciferase assay, pN1-exon8-Fluc in SH-SY5Y cells; format: cell-based; conditions: undifferentiated SH-SY5Y; BDNF 50 ng/ml, GLU 20 μM, 5-HT 50 μM
Method: (§9) Plasmids were transfected into SH-SY5Y cells using lipofectamine 2000 (Invitrogen) to obtain a transient transfection. The relative quantity of DNA to lipofectamine has been determined and the optimal ratio was found at 0.2 μg of DNA and 0.5 μl of lipofectamine for each well of a 96 multiwell plate. At the time of transfection SH-SY5Y cells were around 70-75% of confluency. According to the Promega protocol for luciferase activity measurements, each construct-containing Fluc was transfected together with the normalizing Rluc construct with a 10:1 ratio (0.2 μg Fluc containing vector together with 0.02 μg of pN1-Rluc vector). The DNA (0.2 μg) was mixed with 25 μl of native MEM medium and incubated for 5 minutes at room temperature. […]
(§10) Luciferase assay was performed according to the manufacturer's instructions (Promega). […] After lysis, 100 μl of Luciferase Assay Reagent II (LARII) were dispensed in each well and Firefly luciferase activity was measured using the Glo Max Multi luminometer with two injectors (Promega Corporation).
as §5

rat BDNF 5′UTR exon 1 = test: Dual luciferase assay, pN1-exon1-Fluc in SH-SY5Y cells; format: cell-based; conditions: undifferentiated SH-SY5Y, 24 h after transfection; KCL 50 mM, BDNF 50 ng/ml, GLU 20 μM, NE 50 μM
Method: as §3, §4, §6, §7, §8

[1] = test system: pN1-exon6-Fluc-3′UTR long construct; test: Inhibition of KCl-induced translation of the ex6-Fluc-3′UTRlong construct; format: cell-based, rat; conditions: for prevention of KCl-induced increase in translation of pN1-exon6-Fluc-3′UTR long: 30 min pre-treatment prior 3 h 20 mM KCl, rapamycin 20 nM, U0126 50 μM, KN62 20 μM, GF 50 nM, Aurora A inhibitor 10 μM, PP2 20 μM
From the text: The present invention can be used not only to identify compounds able to increase BDNF translation, but also to screen for potential inhibitors of BDNF protein production. To this aim a series of vectors were constructed which recapitulate the physiological regulation of BDNF translation in that the firefly luciferase gene was flanked both by 5′UTR regions as well as 3′UTR. These constructs included:
Inhibitors of 5′UTR regulation are: rapamycin (rap)=mTOR inhibitor (Takei, Inamura et al. 2004); U0126=MEK inhibitor (Kanhema, Dagestad et al. 2006); GF=PKC inhibitor (Heikkila, Jalava et al. 1993).
Inhibitors of 3′UTR regulation: KN62=CaMKII inhibitor (Lu, Hidaka et al. 1996); AuA=Aurora A inhibitor (Soncini, Carpinelli et al. 2006) and PP2=Src tyrosine kinase inhibitor (Perkinton, Sihra et al. 1999).
Aurora kinase A inhibitor (PHA-680632) was a gift from Nerviano Medical Sciences S.r.l. (Milan, Italy); PP2 (1-tert-butyl-3-(4-chlorophenyl)-1H-pyrazolo[3-4]pyrimidin-4-amine), rapamycin was purchased from Ascent Scientific (Bristol, UK), Bisindolylmaleimide I (2-[1-(3-dimethylaminopropyl)-1H-indol-3-yl]-3-(1H-indol-3yl)-maleimide, GF 109203X, Gö 6850), KN62 (1-[N,O-bis-5-isoquinolinesulfonyl)-N-methyl-L-tyrosyl]-4-phenylpiperazine), U0126 (1,4-diamino-2,3-dicyano-1,4-bis(2-aminophenylthio)butadiene), and U0124 (1,4-Diamino-2,3-dicyano-1,4-bis(methylthio)butadiene) from Calbiochem (Damstadt, Germany).
Relative luciferase units (RLU) describe in absolute values for the Fluc/Rluc (F/R) ratio obtained from each condition—basal, 3 h of 20 mM KCl, 30 min of treatment—rapamycin 20 nM, U0126 50 μM, KN62 20 μM, GF 50 nM, Aurora A inhibitor 10 μM or PP2 20 μM, prior 3 h of depolarization. A value of 1.0 was assumed for the basal condition. The represented data (mean+standard error) corresponds to three independent experiments in quadruplicate ***, P<0.001; **, P<0.01; *, P<0.05, One Way Anova followed by a multiple comparison versus Fluc construct procedure with Holm-Sidak's method.

[2] = test system: SH-SY5Y human neuroblastoma cells; test: MTT viability assay; format: cell-based; conditions: 3 h; ACh 10 μM, NE 50 uM, DOPA 40 μM, BDNF and NT3 both 50 ng/ml
Method: Using a 96-well plate 100 μl of SHSY-5Y cells were distributed per well, maintaining them overnight at 37° C. in a 5% CO2-humified incubator. […] After that, 20 μl of aseptically prepared 5 mg/mL MTT was added, adding it also to an additional quadruplicate of wells without cells, as an internal control. The cells were again incubated at 37° C. this time for 2 h, allowing the formation of formazan crystals by the mitochondrial dehydrogenase of viable cells. Afterwards, the media was carefully removed, and the formazan crystals were solubilised by adding 200 μl of MTT solvent per well, a solution that contains acidified isopropanol (4 mM HCl and 0.1% Nondet P-40 in isopropanol). The crystals were further dissolved by gently pipetting the solution up and down being the resulting purple solution spectrophotometrically measured at 570 nm. An increased absorbance can therefore be directly correlated to the cell number, allowing one to determine the cellular viability after a specific treatment. Since the method is dependent on the physiological state of the cells, the assay was always performed after checking the cellular morphology prior treatment. Moreover, two controls were performed: (1) untreated cells, an internal control to verify the drug-dependent effect; and (2) KCl 200 mM treated cells, in which a cytotoxic concentration was used, thus allowing us to verify the assay fidelity.

rat BDNF 5′UTR exon 7 = test: Dual luciferase assay, pN1-exon7-Fluc in SH-SY5Y cells; format: cell-based; conditions: undifferentiated SH-SY5Y; NE 50 μM
Method: as §9, §10, §5

[3] = test system: BDNF 5′UTR splice variants; test: Dual luciferase assay, response of BDNF 5′UTR splice variants to agonists (collective statements); conditions: undifferentiated SH-SY5Y; for translation of the other BDNF transcripts (other than exon2C): DHPG 50 μM, AMPA 30 μM, NMDA 30 μM
Method: as §3, §4, §6, §7, §8

rat BDNF 5′UTR exon 3 = test: Dual luciferase assay, pN1-exon3-Fluc in SH-SY5Y cells; format: cell-based; conditions: undifferentiated SH-SY5Y; KCL 50 mM
Method: as §9, §10, §5

BDNF 3′UTR-long = test: Luciferase assay, pN1-Fluc-3′long in SH-SY5Y cells; format: cell-based, rat; conditions: transfected SHSY-5Y; KCl 50 mM, GLU 20 μM, DHPG 50 μM, AMPA 30 μM, NMDA 30 μM, AcH 30 μM, NE 50 μM, DOPA 40 μM, 5-HT 50 μM, BDNF 50 ng/μl
Method: as §1, §2

Molecule: N[C@@H](CCC(=O)O)C(=O)O [Glutamate, Glutammate]
- expression of exon 2C containing plasmid (ratio F-luc/R-Luc) (rat BDNF 5′UTR exon 2C): able to induce the expression
- translation of 3′UTR-short-containing transcripts (BDNF 3′UTR-short): striking increase
- translation of exon 2B-containing transcripts (ratio F-luc/R-Luc) (rat BDNF 5′UTR exon 2B): significantly increase
- translation of exon 4-containing transcripts (ratio F-luc/R-Luc) (rat BDNF 5′UTR exon 4): significantly increase
- response of exon 8-containing plasmid (ratio F-luc/R-Luc) (rat BDNF 5′UTR exon 8): responsive
- translation of exon1-containing transcripts (ratio F-luc/R-Luc) (rat BDNF 5′UTR exon 1): significantly increase

Molecule: CC(C)(C)n1nc(-c2ccc(Cl)cc2)c2c(N)ncnc21 [PP2, 1-tert-butyl-3-(4-chlorophenyl)-1H-pyrazolo[3-4]pyrimidin-4-amine]
- prevention of KCl-induced increase in translation of pN1-exon6-Fluc-3′UTR long [1]: completely prevents

Molecule: NCCc1ccc(O)c(O)c1 [Dopamine]
- cell survival (MTT viability), neurotrophic effect [2]: small increase in cell survival

Molecule: NC[C@H](O)c1ccc(O)c(O)c1 [Norepinephrine]
- expression of exon 2C containing plasmid (ratio F-luc/R-Luc) (rat BDNF 5′UTR exon 2C): increased
- translation of exon 2B-containing transcripts (ratio F-luc/R-Luc) (rat BDNF 5′UTR exon 2B): significantly increase
- translation of exon 4-containing transcripts (ratio F-luc/R-Luc) (rat BDNF 5′UTR exon 4): significantly increase
- exon7 reporter expression (ratio F-luc/R-Luc) (rat BDNF 5′UTR exon 7): increased
- translation of exon1-containing transcripts (ratio F-luc/R-Luc) (rat BDNF 5′UTR exon 1): significantly increase
- cell survival (MTT viability), neurotrophic effect [2]: small increase in cell survival

Molecule: CN([C@@H](Cc1ccc(OS(=O)(=O)c2cccc3cnccc23)cc1)C(=O)N1CCN(c2ccccc2)CC1)S(=O)(=O)c1cccc2cnccc12 [KN62]
- prevention of KCl-induced increase in translation of pN1-exon6-Fluc-3′UTR long [1]: completely prevents

Molecule: N[C@H](C(=O)O)c1cc(O)cc(O)c1 [DHPG]
- translation of the other BDNF transcripts (other than exon2C) [3]: not stimulated

Molecule: CN(C)CCCn1cc(C2=C(c3c[nH]c4ccccc34)C(=O)NC2=O)c2ccccc21 [GF, 2-[1-(3-dimethylaminopropyl)-1H-indol-3-yl]-3-(1H-indol-3yl)-maleimide]
- prevention of KCl-induced increase in translation of pN1-exon6-Fluc-3′UTR long [1]: not

Molecule: CCc1cccc(CC)c1NC(=O)N1Cc2n[nH]c(NC(=O)c3ccc(N4CCN(C)CC4)cc3)c2C1 [Aurora A inhibitor, PHA-680632]
- prevention of KCl-induced increase in translation of pN1-exon6-Fluc-3′UTR long [1]: completely prevents

Molecule: Cc1o[nH]c(=O)c1CC(N)C(=O)O (centres unmarked) [AMPA]
- translation of the other BDNF transcripts (other than exon2C) [3]: not stimulated

Molecule: CN[C@H](CC(=O)O)C(=O)O [NMDA]
- expression of exon 2C containing plasmid (ratio F-luc/R-Luc) (rat BDNF 5′UTR exon 2C): enhancement
- translation of the other BDNF transcripts (other than exon2C) [3]: not stimulated

Molecule: NCCc1c[nH]c2ccc(O)cc12 [Serotonin]
- translation of every BDNF exons-containing plasmid, with the exception of those containing exon 2A, 4 and 8 ([3]; 5-HT 50 μM): able to increase the translation

Molecule: [Cl-].[K+] [KCl]
- increase in translation of pN1-exon6-Fluc-3′UTR long (Fluc/Rluc ratio, basal = 1.0) ([1]; end of 3 h depolarization with 20 mM KCl): three-fold increase
- expression of exon 3-containing plasmid (ratio F-luc/R-Luc) (rat BDNF 5′UTR exon 3): induced
- translation of exon 2B-containing transcripts (ratio F-luc/R-Luc) (rat BDNF 5′UTR exon 2B): significantly increase
- translation of exon 4-containing transcripts (ratio F-luc/R-Luc) (rat BDNF 5′UTR exon 4): significantly increase
- translation of exon1-containing transcripts (ratio F-luc/R-Luc) (rat BDNF 5′UTR exon 1): significantly increase
- translation of 3′UTR-long-containing transcripts (BDNF 3′UTR-long): slightly but not significant increase

Molecule: N#CC(=C(N)Sc1ccccc1N)C(C#N)=C(N)Sc1ccccc1N [U0126, 1,4-diamino-2,3-dicyano-1,4-bis(2-aminophenylthio)butadiene]
- prevention of KCl-induced increase in translation of pN1-exon6-Fluc-3′UTR long [1]: completely prevents

B1: Neurotrophin-3 (protein, UniProt P20783 139-257, looked up)
Neurotrophin-3: YAEHKSHRGEYSVCDSESLWVTDKSSAIDIRGHQVTVLGEIKTGNSPVKQYFYETRCKEARPVKNGCRGIDDKHWNSQCKTSQTYVRALTSENNKLVGWRWIRIDTSCVCALSRKIGRT
notes: neurotrophin, used at 50 ng/ml
- cell survival (MTT viability), neurotrophic effect [2]: small increase in cell survival

B2: Brain-derived neurotrophic factor (protein, UniProt P23560 19-247, looked up)
Neurotrophic factor BDNF …: APMKEANIRGQGGLAYPGVRTHGTLESVNGPKAGSRGLTSLADTFEHVIEELLDEDQKVRPNEENNKDADLYTSRVMLSSQVPLEPPLLFLLEEYKNYLDAANMSMRVRRHSDPARRGELSVCDSISEWVTAADKKTAVDMSGGTVTVLEKVPVSKGQLKQYFYETKCNPMGYTKEGCRGIDKRHWNSQCRTTQSYVRALTMDSKKRIGWRFIRIDTSCVCTLTIKRGR
notes: growth and trophic factor of the neurotrophin family, used as agonist at 50 ng/ml
- translation of exon 2B-containing transcripts (ratio F-luc/R-Luc) (rat BDNF 5′UTR exon 2B): significantly increase
- translation of exon 4-containing transcripts (ratio F-luc/R-Luc) (rat BDNF 5′UTR exon 4): significantly increase
- response of exon 8-containing plasmid (ratio F-luc/R-Luc) (rat BDNF 5′UTR exon 8): responsive
- translation of exon1-containing transcripts (ratio F-luc/R-Luc) (rat BDNF 5′UTR exon 1): significantly increase
- cell survival (MTT viability), neurotrophic effect [2]: small increase in cell survival

From patent US20130224754A1, “METHOD FOR THE SELECTION OF COMPOUNDS USEFUL FOR THE TREATMENT OF PSYCHIATRIC AND NEURODEGENERATIVE DISEASES” (UNIVERSITA' DEGLI STUDI DI TRIESTE, priority 2010, published 2013)
